# Laboratory results published in ChEMBL document CHEMBL3407357, “Inhibiting the deubiquitinating enzymes (DUBs)” (J Med Chem, 2015).
# Tests used:
# [1] = molecular target: T1, Ubiquitin carboxyl-terminal hydrolase 7 (Homo sapiens, UniProt Q93009); test: Inhibition of USP7 (unknown origin) by Ub-CHOP reporter assay
# [2] = molecular target: Ubiquitin carboxyl-terminal hydrolase 10 (Homo sapiens, UniProt Q14694); test: Inhibition of USP10 (unknown origin) by Ub-AMC assay
# [3] = molecular target: T2, Ubiquitin carboxyl-terminal hydrolase 13 (Homo sapiens, UniProt Q92995); test: Inhibition of USP13 (unknown origin) by Ub-AMC assay
# T2 sequence (Q92995 whole entry): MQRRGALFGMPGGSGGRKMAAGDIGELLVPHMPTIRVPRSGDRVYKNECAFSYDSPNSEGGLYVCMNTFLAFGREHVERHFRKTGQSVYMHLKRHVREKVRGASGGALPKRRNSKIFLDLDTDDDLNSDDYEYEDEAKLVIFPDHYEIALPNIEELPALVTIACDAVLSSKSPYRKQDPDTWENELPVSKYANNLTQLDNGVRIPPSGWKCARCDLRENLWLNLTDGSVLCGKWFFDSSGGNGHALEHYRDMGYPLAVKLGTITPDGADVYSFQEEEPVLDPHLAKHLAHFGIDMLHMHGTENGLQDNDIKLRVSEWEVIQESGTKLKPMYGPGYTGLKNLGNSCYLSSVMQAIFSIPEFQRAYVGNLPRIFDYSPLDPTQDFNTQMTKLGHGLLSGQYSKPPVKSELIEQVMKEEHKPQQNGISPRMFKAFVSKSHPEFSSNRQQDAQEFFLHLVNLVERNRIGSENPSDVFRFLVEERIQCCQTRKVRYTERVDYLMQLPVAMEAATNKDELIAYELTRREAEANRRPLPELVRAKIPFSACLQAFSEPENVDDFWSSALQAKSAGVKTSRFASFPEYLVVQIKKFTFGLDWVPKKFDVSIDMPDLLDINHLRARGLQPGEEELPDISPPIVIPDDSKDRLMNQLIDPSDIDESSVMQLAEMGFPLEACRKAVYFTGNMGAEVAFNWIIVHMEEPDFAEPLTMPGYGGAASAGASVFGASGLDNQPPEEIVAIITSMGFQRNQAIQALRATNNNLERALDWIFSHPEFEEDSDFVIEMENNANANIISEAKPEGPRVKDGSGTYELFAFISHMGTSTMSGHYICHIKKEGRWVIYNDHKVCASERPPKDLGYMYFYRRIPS
# [4] = molecular target: T1, Ubiquitin carboxyl-terminal hydrolase 7; test: Inhibition of USP7 in multiple myeloma cells (unknown origin) by immunohistochemistry; format: cell-based
# [5] = molecular target: T1, Ubiquitin carboxyl-terminal hydrolase 7; test: Inhibition of USP7 (unknown origin) by Ub-AMC assay
# [6] = Steady state intracellular drug concentration after 1 hr by LC-MS and UV spectroscopy by cell based assay
# [7] = molecular target: T3, Ubiquitin carboxyl-terminal hydrolase 1 (Homo sapiens, UniProt O94782); test: Inhibition of USP1 (unknown origin) by Ub-AMC assay
# T3 sequence (O94782 whole entry): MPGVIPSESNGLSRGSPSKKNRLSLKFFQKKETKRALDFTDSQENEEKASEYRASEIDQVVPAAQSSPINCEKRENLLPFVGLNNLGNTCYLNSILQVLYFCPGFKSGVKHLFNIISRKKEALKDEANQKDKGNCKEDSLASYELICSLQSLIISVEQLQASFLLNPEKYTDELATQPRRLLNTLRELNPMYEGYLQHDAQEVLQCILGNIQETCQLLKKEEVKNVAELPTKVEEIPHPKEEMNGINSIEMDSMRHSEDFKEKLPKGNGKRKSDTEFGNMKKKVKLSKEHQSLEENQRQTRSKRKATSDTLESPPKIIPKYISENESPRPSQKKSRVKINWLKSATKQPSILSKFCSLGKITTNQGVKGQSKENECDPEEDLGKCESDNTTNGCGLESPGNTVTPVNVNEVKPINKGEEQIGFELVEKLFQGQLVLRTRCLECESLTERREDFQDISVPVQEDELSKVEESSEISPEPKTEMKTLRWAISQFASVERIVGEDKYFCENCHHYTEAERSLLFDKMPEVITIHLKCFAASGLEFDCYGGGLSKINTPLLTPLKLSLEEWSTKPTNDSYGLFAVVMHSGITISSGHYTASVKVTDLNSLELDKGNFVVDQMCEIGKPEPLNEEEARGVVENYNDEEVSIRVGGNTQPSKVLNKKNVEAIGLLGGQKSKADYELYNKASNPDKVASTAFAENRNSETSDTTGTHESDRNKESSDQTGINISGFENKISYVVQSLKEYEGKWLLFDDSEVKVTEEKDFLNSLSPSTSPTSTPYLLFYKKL
# T1 sequence (Q93009 whole entry): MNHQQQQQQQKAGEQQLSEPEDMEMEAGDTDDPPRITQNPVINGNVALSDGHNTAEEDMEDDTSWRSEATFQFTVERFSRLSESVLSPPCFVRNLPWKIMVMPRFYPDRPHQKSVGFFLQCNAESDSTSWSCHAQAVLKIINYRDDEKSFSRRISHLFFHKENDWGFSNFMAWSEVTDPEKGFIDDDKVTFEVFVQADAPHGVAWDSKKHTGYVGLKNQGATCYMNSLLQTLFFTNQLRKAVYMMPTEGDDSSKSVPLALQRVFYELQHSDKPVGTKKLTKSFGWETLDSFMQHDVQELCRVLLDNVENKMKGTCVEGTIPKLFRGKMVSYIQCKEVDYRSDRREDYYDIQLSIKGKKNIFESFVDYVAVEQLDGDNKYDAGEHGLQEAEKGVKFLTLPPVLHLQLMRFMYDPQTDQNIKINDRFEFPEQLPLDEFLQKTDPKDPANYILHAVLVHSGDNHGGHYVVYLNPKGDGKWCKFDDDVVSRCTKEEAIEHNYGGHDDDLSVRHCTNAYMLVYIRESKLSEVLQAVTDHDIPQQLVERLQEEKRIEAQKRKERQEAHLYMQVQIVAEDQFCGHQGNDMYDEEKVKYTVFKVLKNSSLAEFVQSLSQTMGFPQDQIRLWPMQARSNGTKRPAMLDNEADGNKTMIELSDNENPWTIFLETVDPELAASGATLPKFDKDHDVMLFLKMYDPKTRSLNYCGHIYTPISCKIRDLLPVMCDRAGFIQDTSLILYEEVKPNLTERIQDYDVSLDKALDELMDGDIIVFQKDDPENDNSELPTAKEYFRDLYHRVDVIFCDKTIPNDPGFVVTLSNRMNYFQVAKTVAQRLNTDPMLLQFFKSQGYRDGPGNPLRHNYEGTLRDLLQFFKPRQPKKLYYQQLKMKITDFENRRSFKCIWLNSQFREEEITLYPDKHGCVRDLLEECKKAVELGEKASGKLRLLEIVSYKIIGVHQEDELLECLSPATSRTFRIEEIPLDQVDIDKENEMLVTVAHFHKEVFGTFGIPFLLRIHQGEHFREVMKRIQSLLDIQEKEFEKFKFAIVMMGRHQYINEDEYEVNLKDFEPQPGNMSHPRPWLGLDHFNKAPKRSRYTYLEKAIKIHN
# Ubiquitin carboxyl-terminal hydrolase 10, sequence (Q14694 whole entry): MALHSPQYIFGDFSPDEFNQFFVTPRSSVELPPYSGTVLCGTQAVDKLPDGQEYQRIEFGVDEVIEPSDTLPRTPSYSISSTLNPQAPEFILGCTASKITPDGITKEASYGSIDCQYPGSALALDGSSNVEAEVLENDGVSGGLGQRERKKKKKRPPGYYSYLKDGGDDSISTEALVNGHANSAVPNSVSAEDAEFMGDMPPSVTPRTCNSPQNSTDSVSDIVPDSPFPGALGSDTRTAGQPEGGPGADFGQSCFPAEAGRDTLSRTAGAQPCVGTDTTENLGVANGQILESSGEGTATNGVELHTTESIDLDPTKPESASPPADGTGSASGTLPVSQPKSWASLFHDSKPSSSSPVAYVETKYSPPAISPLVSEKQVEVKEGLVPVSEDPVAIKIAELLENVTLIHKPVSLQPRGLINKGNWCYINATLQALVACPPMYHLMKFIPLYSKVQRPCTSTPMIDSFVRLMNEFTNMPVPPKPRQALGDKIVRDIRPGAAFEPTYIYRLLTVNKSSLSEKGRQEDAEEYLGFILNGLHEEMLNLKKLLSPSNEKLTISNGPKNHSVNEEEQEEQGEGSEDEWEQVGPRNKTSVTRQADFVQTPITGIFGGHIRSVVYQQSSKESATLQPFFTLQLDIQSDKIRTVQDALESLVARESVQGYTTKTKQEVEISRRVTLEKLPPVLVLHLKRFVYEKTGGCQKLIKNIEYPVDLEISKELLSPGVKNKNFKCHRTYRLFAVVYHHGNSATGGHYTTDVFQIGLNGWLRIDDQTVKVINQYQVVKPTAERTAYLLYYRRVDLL
smiles,measurement,setting,value
CC(=O)c1cc([N+](=O)[O-])c(Sc2cccc(Cl)c2Cl)s1,EC50,[1],8000 nM
Fc1ccc(CNc2ncnc3ccc(F)cc23)cc1,IC50,[2],600 nM
same,IC50,[3],600 nM
O=[N+]([O-])c1cc(CCO)sc1Sc1cccc(Cl)c1Cl,EC50,[4],20100 nM
N#Cc1nc2c(nc1C#N)-c1cc(Cl)ccc1C2=O,IC50,[5],420 nM
Cc1cc(C(=O)CN2CCCC2)c(C)n1-c1ccc(F)cc1,Drug uptake,[6],13 µM
O=C1c2ccccc2C(=O)c2oc(-c3ccccc3)nc21,IC50,[7],544 nM
